The values that follow come from patent US20220096486A1, “COMPOUNDS FOR USE IN THE TREATMENT OF ADCY5-RELATED DYSKINESIA” (ASSISTANCE PUBLIQUE - HOPITAUX DE PARIS, priority 2019, published 2022).

“Also recorded” adds a separate entry of the source.

One assay deals with A2AR knockout mice. The conditions noted are these: cited from earlier work.
Assay [1] concerns patient with ADCY5-related dyskinesia.
Text: The patient is a child with the disorder. Pregnancy, birth and first acquisitions were unremarkable. They developed diurnal and nocturnal episodes of hyperkinetic involuntary movements involving the face and upper limbs, lasting from a few seconds to ten minutes. There was a clear kinesigenic trigger for some of the episodes, others were exercise-induced, and a few were spontaneous. In addition, they were described as clumsy, and had difficulties in various activities of daily living such as fine motor tasks or riding a bike. Frequency of the episodes was around 30 per day, causing significant disruption of activities. […] Interictal neurological examination was normal except for some fleeting choreodystonic movements. Because of the co-occurrence of several types of paroxysmal dyskinesia, the patient was first tested for mutations in the SLC2A1 and ADCY5 genes. Genetic analysis was negative for SLC2A1 but found a mosaic heterozygous mutation in the ADCY5 gene (c.2088+1G>A), previously reported as pathogenic (Carapito et al., A de novo ADCY5 mutation causes early-onset autosomal dominant chorea and dystonia. Mov Disord. 2015; 30(3):423-7).
Caffeine was the first treatment tried.
The test system of assay [2] is patients with ADCY5-related dyskinesia. Put plainly: Seven patients treated with caffeine; dyskinesia episodes and self-rated improvement. Format: in vivo, human. Particulars: 150 to 800 mg of caffeine per day, all cases. How it is done: Currently, seven patients are treated with caffeine with similar results with uptakes varying from 150 to 800 mg of caffeine per day. […] Four of them were asked to rate the improvement brought by caffeine on their involuntary movements, on a scale of 0 (no improvement) to 100% (major improvement with total disappearance of symptoms). All four reported an improvement of 80 to 100%.

On to `Cn1c(=O)c2c(ncn2C)n(C)c1=O` [caffeine, 1,3,7-trimethylxanthine], for which the wake-promoting effect result in the assay with A2AR knockout mice is recorded as “abolished”. Also, in assay [1] (after unknowing switch to decaffeinated coffee with reversal to baseline), the “effect of resuming caffeine intake after four days of decaffeinated coffee” value is on record as “immediately restored the improvement”. For the same compound, the “effect on diurnal and nocturnal episodes of dyskinesia” value in assay [1] (espresso in the morning, second espresso in the afternoon, half an espresso at bedtime, baseline around 30 episodes per day) was “next to complete resolution; also recorded: near-complete resolution”. For the same compound, in assay [1] (espresso morning, afternoon and half at bedtime, baseline around 30 episodes per day), the “remaining short and non-disruptive episodes during the day” value is “at most one or two”. The “start of dramatic response after intake” value in assay [1] (one espresso in the morning, approximately 100 mg of caffeine, child, c.2088+1G>A ADCY5 mutation) was 45 min. Moreover, the “effect on dyskinesia episodes” value in assay [2] is “reduction or a suppression of dyskinesia episodes”.
